Results published in PubChem BioAssay AID256 (DTP/NCI, 2004).
“And” between values parts separate entries of the source, which are not always exact repeats. Equal values may be shown once. Toxic doses and inconclusive results are not listed. Rule for the calls: active = survival T/C of 150% or more; inactive = T/C below 125% in these data.

Tested on: CD2F1 mice, L1210 leukemia ip, survival T/C
Test: NCI In Vivo Anticancer Drug Screen. Data for tumor model L1210 Leukemia (intraperitoneal) in CD2F1 (CDF1) mice
Conditions: higher = longer survival
How it was run: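 Each value reflects a quotient of treated over vehicle control outcomes in mice with a transplanted tumor.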

[1] = endpoint: mean survival time, dose: 100.0 mg/kg/injection, schedule: Q04DX003 (ip), vehicle: saline with Tween-80
[2] = endpoint: mean survival time, dose: 200.0 mg/kg/injection, schedule: Q04DX003 (ip), vehicle: saline with Tween-80
[3] = endpoint: mean survival time, dose: 400.0 mg/kg/injection, schedule: Q04DX003 (ip), vehicle: saline with Tween-80
[4] = endpoint: mean survival time, dose: 12.5 mg/kg/injection, schedule: Q01DX009 (ip), vehicle: saline with Tween-80
[5] = endpoint: mean survival time, dose: 25.0 mg/kg/injection, schedule: Q01DX009 (ip), vehicle: saline with Tween-80
[6] = endpoint: mean survival time, dose: 50.0 mg/kg/injection, schedule: Q01DX009 (ip), vehicle: saline with Tween-80
[7] = endpoint: mean survival time, dose: 100.0 mg/kg/injection, schedule: Q01DX009 (ip), vehicle: saline with Tween-80
[8] = endpoint: mean survival time, dose: 200.0 mg/kg/injection, schedule: Q01DX009 (ip), vehicle: saline with Tween-80

Measured: T/C

O=c1ccnc[nH]1
inactive: endpoint: mean survival time, dose: 100.0 mg/kg/injection, schedule: Q04DX003 (ip), vehicle: saline sonified 93 % of control | endpoint: mean survival time, dose: 200.0 mg/kg/injection, schedule: Q04DX003 (ip), vehicle: saline sonified 104 % of control | endpoint: mean survival time, dose: 400.0 mg/kg/injection, schedule: Q04DX003 (ip), vehicle: saline sonified 104 % of control

Cc1ccc(S(=O)(=O)OC2CCC3(C)C(CCC4C3CCC3(C)C(C(C)CCCC(C)C)CCC43)C2)cc1 (stereo unspecified)
inactive: [1] 92 % of control | [2] 90 % of control | [3] 89 % of control

S=C1NCCS1
inactive: endpoint: mean survival time, dose: 75.0 mg/kg/injection, schedule: Q01DX009 (ip), vehicle: Klucel (hydroxypropylcellulose) (HPC) 95 % of control | endpoint: mean survival time, dose: 150.0 mg/kg/injection, schedule: Q01DX009 (ip), vehicle: Klucel (hydroxypropylcellulose) (HPC) 96 % of control | endpoint: mean survival time, dose: 300.0 mg/kg/injection, schedule: Q01DX009 (ip), vehicle: Klucel (hydroxypropylcellulose) (HPC) 101 % of control

O=C(CCCCl)Oc1ccccc1
inactive: [1] 87 % of control | [2] 87 % of control | [3] 103 % of control

NNS(=O)(=O)c1ccc(Oc2ccc(S(=O)(=O)NN)cc2)cc1
inactive: endpoint: mean survival time, dose: 50.0 mg/kg/injection, schedule: Q01DX009 (ip), vehicle: Klucel (hydroxypropylcellulose) (HPC) 101 % of control | endpoint: mean survival time, dose: 100.0 mg/kg/injection, schedule: Q01DX009 (ip), vehicle: Klucel (hydroxypropylcellulose) (HPC) 96 % of control | endpoint: mean survival time, dose: 200.0 mg/kg/injection, schedule: Q01DX009 (ip), vehicle: Klucel (hydroxypropylcellulose) (HPC) 108 % of control

O=C1CC2CCN(C(=O)c3ccccc3)C(Cc3c[nH]c4ccccc34)C2O1 (stereo unspecified)
inactive: endpoint: mean survival time, dose: 100.0 mg/kg/injection, schedule: Q01DX001 (ip), vehicle: saline 105 % of control | endpoint: mean survival time, dose: 200.0 mg/kg/injection, schedule: Q01DX001 (ip), vehicle: saline 94 % of control | endpoint: mean survival time, dose: 400.0 mg/kg/injection, schedule: Q01DX001 (ip), vehicle: saline 93 % of control

NC(=S)N/N=C/c1ccc(F)cn1
inactive: endpoint: mean survival time, dose: 11.0 mg/kg/injection, schedule: Q04DX003 (ip), vehicle: saline with Tween-80 105 % of control | endpoint: mean survival time, dose: 12.5 mg/kg/injection, schedule: Q04DX002 (ip), vehicle: saline with Tween-80 118 % of control | endpoint: mean survival time, dose: 16.5 mg/kg/injection, schedule: Q04DX003 (ip), vehicle: saline with Tween-80 110 % of control | endpoint: mean survival time, dose: 25.0 mg/kg/injection, schedule: Q04DX003 (ip), vehicle: saline with Tween-80 110 % of control

CC1C(c2ccccc2)OC(N2CCOCC2)C(C)(C)CN1C (stereo unspecified)
inactive: endpoint: median survival time, dose: 50.0 mg/kg/injection, schedule: Q01DX009 (ip), vehicle: saline with Tween-80 100 % of control | endpoint: median survival time, dose: 100.0 mg/kg/injection, schedule: Q01DX009 (ip), vehicle: saline with Tween-80 102 % of control | endpoint: median survival time, dose: 200.0 mg/kg/injection, schedule: Q01DX009 (ip), vehicle: saline with Tween-80 102 % of control | endpoint: median survival time, dose: 400.0 mg/kg/injection, schedule: Q01DX009 (ip), vehicle: saline with Tween-80 97 % of control

O=c1scc(-c2ccc(C(F)(F)F)cc2)s1
inactive: endpoint: mean survival time, dose: 12.5 mg/kg/injection, schedule: Q01DX009 (ip), vehicle: Klucel (hydroxypropylcellulose) (HPC) 100 % of control | endpoint: mean survival time, dose: 25.0 mg/kg/injection, schedule: Q01DX009 (ip), vehicle: Klucel (hydroxypropylcellulose) (HPC) 91 % of control

COC(=O)c1ccc(C(=O)CC(=O)c2ccccc2)cc1
inactive: endpoint: median survival time, dose: 25.0 mg/kg/injection, schedule: Q04DX003 (ip), vehicle: saline with Tween-80 100 % of control | endpoint: median survival time, dose: 50.0 mg/kg/injection, schedule: Q04DX003 (ip), vehicle: saline with Tween-80 88 % of control | endpoint: median survival time, dose: 100.0 mg/kg/injection, schedule: Q04DX003 (ip), vehicle: saline with Tween-80 88 % of control | endpoint: median survival time, dose: 200.0 mg/kg/injection, schedule: Q04DX003 (ip), vehicle: saline with Tween-80 88 % of control

COc1cc(OC)c(NC(=O)Oc2ccc(Br)cc2Br)cc1Cl
inactive: [4] 92 % of control | [5] 100 % of control | [6] 94 % of control and 107 % of control | [7] 94 % of control | [8] 90 % of control

COC(=O)c1ccccc1NC(=O)CCl
inactive: [6] 96 % of control | [7] 98 % of control | [8] 94 % of control

CCCC(=O)c1cc(O)c(O)cc1O
inactive: [4] 111 % of control | [5] 93 % of control | [6] 97 % of control

CCOC(=O)/C(C#N)=C\c1cc([N+](=O)[O-])ccc1Cl
inactive: [1] 89 % of control | [2] 108 % of control | [3] 108 % of control

O=C1CSC(=S)N1Cc1ccccc1
inactive: [1] 101 % of control | [2] 97 % of control | [3] 97 % of control

Cc1ccc(S(=O)(=O)N=S2CCCC2)cc1
inactive: endpoint: mean survival time, dose: 100.0 mg/kg/injection, schedule: Q04DX003 (ip), vehicle: other 102 % of control | endpoint: mean survival time, dose: 200.0 mg/kg/injection, schedule: Q04DX003 (ip), vehicle: other 106 % of control | endpoint: mean survival time, dose: 400.0 mg/kg/injection, schedule: Q04DX003 (ip), vehicle: other 104 % of control

Cc1ccccc1Sc1cc2ccccc2c2ccccc12
inactive: endpoint: mean survival time, dose: 100.0 mg/kg/injection, schedule: Q04DX003 (ip), vehicle: saline 97 % of control | endpoint: mean survival time, dose: 200.0 mg/kg/injection, schedule: Q04DX003 (ip), vehicle: saline 100 % of control | endpoint: mean survival time, dose: 400.0 mg/kg/injection, schedule: Q04DX003 (ip), vehicle: saline 100 % of control

c1ccc2c(c1)OC1(CCCCC1)O2
inactive: [1] 100 % of control | [2] 103 % of control | [3] 102 % of control

O=c1nc(Nc2ccccc2)ccn1C1OC(CO)C(O)C1O (stereo unspecified)
inactive: endpoint: mean survival time, dose: 100.0 mg/kg/injection, schedule: Q01DX005 (ip), vehicle: distilled water + Tween-80 98 % of control | endpoint: mean survival time, dose: 200.0 mg/kg/injection, schedule: Q01DX005 (ip), vehicle: distilled water + Tween-80 107 % of control | endpoint: mean survival time, dose: 400.0 mg/kg/injection, schedule: Q01DX005 (ip), vehicle: distilled water + Tween-80 110 % of control

CCOc1ccc(Nc2c3ccccc3nc3ccccc23)cc1
inactive: [8] 88 % of control

Cc1n[nH]n(Cc2ccccc2)c1=O
inactive: endpoint: mean survival time, dose: 25.0 mg/kg/injection, schedule: Q01DX005 (ip), vehicle: saline with Tween-80 97 % of control | endpoint: mean survival time, dose: 50.0 mg/kg/injection, schedule: Q01DX005 (ip), vehicle: saline with Tween-80 99 % of control | endpoint: mean survival time, dose: 100.0 mg/kg/injection, schedule: Q01DX005 (ip), vehicle: saline with Tween-80 97 % of control | endpoint: mean survival time, dose: 200.0 mg/kg/injection, schedule: Q01DX005 (ip), vehicle: saline with Tween-80 99 % of control | endpoint: mean survival time, dose: 400.0 mg/kg/injection, schedule: Q01DX005 (ip), vehicle: saline with Tween-80 97 % of control

COC(=O)/C=C/c1ccc([N+](=O)[O-])cc1
inactive: [7] 100 % of control | [8] 100 % of control | endpoint: mean survival time, dose: 400.0 mg/kg/injection, schedule: Q01DX009 (ip), vehicle: saline with Tween-80 105 % of control

CC(=O)Oc1c(Cl)cc(Cl)c(Cl)c1[N+](=O)[O-]
inactive: endpoint: mean survival time, dose: 100.0 mg/kg/injection, schedule: Q01DX001 (ip), vehicle: saline with Tween-80 93 % of control | endpoint: mean survival time, dose: 200.0 mg/kg/injection, schedule: Q01DX001 (ip), vehicle: saline with Tween-80 93 % of control

O=c1cc(C(Br)(Br)Br)[nH]c2ccccc12
inactive: [1] 99 % of control | [2] 97 % of control | [3] 99 % of control

Cc1ccccc1N=C(N)Nc1ccccc1C
inactive: endpoint: mean survival time, dose: 10.0 mg/kg/injection, schedule: Q04DX003 (ip), vehicle: saline with Tween-80 98 % of control
